Values quoted from earlier work in patent publication US20200038413A1, “METHODS OF TREATING PARKINSON'S DISEASE USING AMINOSTEROL COMPOSITIONS” (Enterin, Inc., priority 2018, published 2020).
Counter-ions that a name gives are not always drawn.

Key:
[1] = system: PD population; conditions: short term placebo controlled trial, PD constipation; cited from earlier work
[2] = single and repeat intravenous administration, alone or in combination; cited from earlier work

Row | Structure (SMILES) | proportion of those treated in whom effective [1] | well tolerated dose [2]
1 | CCCCC(F)(F)[C@@]1(O)CC[C@H]2[C@@H](CC(=O)[C@@H]2CCCCCCC(=O)O)O1 [Lubiprostone] | about 50% | 
2 | CC(C)[C@@H](CC[C@@H](C)[C@H]1CC[C@H]2[C@@H]3[C@H](O)C[C@H]4C[C@@H](NCCCNCCCCN)CC[C@]4(C)[C@H]3CC[C@]12C)OS(=O)(=O)O [Squalamine dilactate salt] |  | at least 300 mg/m^2
